Like-named read-outs stand apart in the source and are kept apart here.

Experimental findings from patent publication US9289398B2, “Methods for the production of functional protein from DNA having a nonsense mutation and the treatment of disorders associated therewith” (PTC Therapeutics, Inc., priority 2006, dated 2016) are described below.

Holding throughout (type): in vivo, human
Data set [1] is described as follows: Pharmacokinetics, CF Phase 2 preliminary analysis. The note with it: for Cmax / AUC(0-t): both sexes, human, in vivo, oral; for AUC(0-t): read-out: AUC0-24. From the text:
(§1) 3-[5-(2-Fluoro-phenyl)-[1,2,4]oxadiazol-3-yl]-benzoic acid was provided in a formulation described herein.
The 3-[5-(2-fluoro-phenyl)-[1,2,4]oxadiazol-3-yl]-benzoic acid interim PK parameters from these 15 patients are described in Table 17.

Data set [2] can be described thus: Body weight, CF Phase 2 study.
Description: as §1
Statistically significant results and positive trends for secondary endpoints were also observed. In particular, although the trials were not been powered to detect statistical significant changes in secondary endpoints, statistically significant improvements from study entry to the end of the higher-dose treatment cycle in the patients' mean FEV1, FVC and weight were observed.

A short description of data set [3]: Plasma exposure, additional DMD Phase 2 study. The protocol:
3-[5-(2-fluoro-phenyl)-[1,2,4]oxadiazol-3-yl]-benzoic acid was administered orally for 28 days at dose levels of 4, 4, 8 mg/kg (low dose); 10, 10, 20 mg/kg (mid dose); and 20, 20, 40 mg/kg (high dose) after breakfast, lunch, and dinner, respectively. 26 boys (ages: 5-13 years; stop codons: 15 UGA, 6 UAG, 5 UAA; baseline serum CK: 8,645-49,500 IU; steroid use: 19/26) completed 3-[5-(2-fluoro-phenyl)-[1,2,4]oxadiazol-3-yl]-benzoic acid at the low (n=6) or mid (n=20) dose levels. […] Compliance was >98% for both dose levels. Day 1 and Day 28 PK indicate stable plasma exposures over time; however, exposures were lower than in 3-[5-(2-fluoro-phenyl)-[1,2,4]oxadiazol-3-yl]-benzoic acid-treated healthy adult volunteers and cystic fibrosis patients. […] Relative to baseline, post-treatment increases in in vivo dystrophin expression occurred in 4/6 (67%) (90% CI 27-94%) and 10/20 (50%) (90% C1-30-70%) boys at low and mid doses, respectively.
3-[5-(2-fluoro-phenyl)[1,2,4]oxadiazol-3-yl]-benzoic acid safely induces full-length dystrophin expression in vitro and in vivo and decreases serum CK levels in boys with nonsense-mutation-mediated DMD. […] Evaluation at the high dose level in 12 additional boys is ongoing.

Data set [4] is described as follows: Muscle strength (myometry) and timed function tests, DMD Phase 2. The following applies: within the 28 days of treatment. The protocol: Upper and lower extremity myometry are performed using a hand-held myometer following standardized procedures (Beenakker, 2001, Neuromuscul. Disord. 11(5):441-6; Hyde, 2001, Neuromuscul. Disord 11(2):165-70). It is recommended (depending on the subject's baseline functional status) that evaluated muscle groups include hip abductors, knee extensors, elbow flexors and extensors, and hand grip. Bilateral assessments can be done, and three measurements can be recorded from each muscle group on each side. These parameters are monitored prior to treatment, on the second to last day of treatment, and during a follow-up period after treatment. During the pre-treatment and treatment periods, the myometry procedures are performed prior to the muscle biopsy.
Timed function tests include time taken to stand from a supine position, time taken to walk 10 meters, and time taken to climb 4 standard-sized stairs (Mendell, 1989, N. Engl. J. Med. 320(24):1592-7; Griggs, 1991, Arch. Neurol. 48(4):383-8). These parameters are monitored prior to treatment, on the second to last day of treatment, and during a follow-up period after treatment. During the pre-treatment and treatment periods, the timed function tests are performed prior to the muscle biopsy. […]

Where [5] appears, read: 8 mg/kg, Cycle 1 lower dose 4, 4, 8 mg/kg, Day 1, N = 15, mean.
[6] abbreviates: 8 mg/kg, Cycle 1 lower dose 4, 4, 8 mg/kg, Day 14, N = 15, mean.
[7] abbreviates: 20 mg/kg, Cycle 2 higher dose 10, 10, 20 mg/kg, Day 1, N = 15, mean.
Setting [8] is: 20 mg/kg, Cycle 2 higher dose 10, 10, 20 mg/kg, Day 14, N = 15, mean.

Take `O=C(O)c1cccc(-c2noc(-c3ccccc3F)n2)c1` [3-[5-(2-fluoro-phenyl)-[1,2,4]oxadiazol-3-yl]-benzoic acid]: the “Differences in PK parameters by gender” value in data set [1] (15 CF patients) is given as “No differences”. For the same compound, the Cmin in data set [1] (Cycle 1 lower dose 4, 4, 8 mg/kg, Day 1, N = 15, mean) was determined as 1.6 µg/mL; in data set [1] (Cycle 1 lower dose 4, 4, 8 mg/kg, Day 14, N = 15, mean), 1.9 µg/mL; in data set [1] (Cycle 2 higher dose 10, 10, 20 mg/kg, Day 1, N = 15, mean), 5.0 µg/mL; in data set [1] (Cycle 2 higher dose 10, 10, 20 mg/kg, Day 14, N = 15, mean), 6.5 µg/mL. Besides, the highest concentration (Cmax) (commonly the maximum level reached in the sampled fluid or tissue) is 16000 ng/mL in data set [1] (setting [5]), 13000 ng/mL in data set [1] (setting [6]), 41000 ng/mL in data set [1] (setting [7]) and 36000 ng/mL in data set [1] (setting [8]). Also, the AUC(0-t) was determined as 145 µg·h/mL in data set [1] (setting [5]), 124 µg·h/mL in data set [1] (setting [6]), 435 µg·h/mL in data set [1] (setting [7]) and 417 µg·h/mL in data set [1] (setting [8]). Moreover, the “Weight, End of Higher Dose Treatment” value in data set [2] (study entry 58.3 kg) is given as 59.0 kg. In data set [2] (study entry to end of higher dose treatment), the “Weight, Change” value turned out to be 0.7 kg. In addition, the “Plasma exposures over time” value in data set [3] (Day 1 and Day 28 PK) is “stable”. For the same compound, the “Plasma exposures relative to treated healthy adult volunteers and cystic fibrosis patients” value in data set [3] (boys with DMD) is “lower”. Also, the “Plasma exposures relative to those associated with maximal preclinical activity” value in data set [3] (low and mid dose levels) is listed as “did not achieve plasma exposures associated with maximal preclinical activity”. For the same compound, in data set [4], the “Changes in muscle strength and timed functions” value was “small and not significant”.
